# Laboratory results published in patent US20030096237A1, “Determination of the ability of patients to respond to a tumor treatment” (priority 2000, published 2003).
# Assays:
# Type in all cases: cell-based, human
# [1] = test system: CNCM I-2545 and CNCM I-2546; experiment: oligonucleotide array analysis, clustering of genes by mode of regulation; details: 1st symbol CNCM I-2545, 2nd CNCM I-2546
# Description: (§1) All these cell lines were cultured in RPMI medium supplemented with 10% FCS, glutamine (2 mM), sodium pyruvate (1 mM), non-essential amino acids and HEPES buffer (10 mM) (all from GIBCO Life Sciences, Paisley, UK). When confluent, the cells were passaged by trypsinization.
# Cultured melanoma cells were harvested by scraping and total cellular RNA was extracted. 10 μg from each sample were used directly as templates for cDNA synthesis using a commercial kit (Roche Molecular Biochemicals, Rotkreuz, Switzerland). The T7 promoter sequence incorporated into the cDNA synthesis primer allowed template amplification and biotin labeling by in vitro transcription using a commercial kit (Affymetrix, Santa Clara, Calif.). After alkaline heat fragmentation […] was hybridised to the array (Affymetrix, Santa Clara, Calif.) and all subsequent steps were performed following standard procedures as supplied with the arrays. Raw data were collected with a confocal laser scanner (Hewlett Packard, Palo Alto, Calif.) using GeneChip software v3.1 (Affymetrix, Santa Clara, Calif.).
# Raw data were normalized based on the total chip signal obtained upon hybridisation of ME15 cell line cDNA. This array was selected because: i) the 5′/3′ intensity ratio of control genes was smaller than 3; ii)>25% of the genes are called “present” by Genechip; iii) the image appearance is homogeneous with low background and no sign of mechanical chip damage.
# The normalized average difference (nAD) between the signals of the perfect and of the mismatch probesets for each gene was used as the expression level of a given gene. At least one nAD value in a pairwise comparison of data has to exceed 50 to be included. Based on nAD, change factors related to IFN-α exposure were also calculated. Negative nAD values were set to 20 in order to avoid the calculation of artificially high modifications. In order to exclude artefacts, only genes with robust change factors, greater than 2-fold, were included in the analysis. […] Genes were clustered according to their mode of regulation.
# Patterns of genes expressed in IFN-α sensitive and resistant melanoma cell lines were investigated upon 48 hour culture in the presence of IFN-α. CNCM I-2546 and CNCM I-2545 were studied in detail.
# In Table 2 below, CNCM I-2546 and CNCM I-2545 cultured for 48 hours in the absence or in the presence of 100 U/ml IFN-α were used to assay cytokine modulated gene expression as matched with data obtained in fibrosarcoma cells. This analysis yielded six clusters of genes. […] Data are presented as average difference of signal intensity between match and mismatch probesets.
# In Table 3 below, CNCM I-2546 and CNCM I-2545 cell lines cultured for 48 hours in the absence or in the presence of 100 U/ml IFN-α were used to identify novel cytokine induced genes whose expression was not found to be modulated in fibrosarcoma cells. Cluster 1 includes genes inducible in the CNCM I-2546 sensitive but not in the CNCM I-2545 resistant cell line. Cluster 2 comprises genes inducible in both lines. Data are presented as average difference of signal intensity between match and mismatch probesets.
# CNCM I-2548 = experiment: proliferation inhibition, 3H-Thymidine incorporation; details: concentration inducing at least 50% inhibition of maximal proliferation
# Description: (§2) Melanoma cell lines were screened for their sensitivity to proliferation inhibition and HLA class I induction. The study was done of six cell lines (CNCM I-2544, CNCM I-2545, CNCM I-2546, CNCM I-2547, CNCM I-2548 and CNCM I-2549).
# as §1
# (§3) A number of established melanoma cell lines were assayed for their sensitivity to IFN-α by testing the capacity of IFN-α to inhibit their proliferation and to increase their surface expression of HLA class I determinants.
# CNCM I-2547 = experiment: as above; details: concentration inducing at least 50% inhibition of maximal proliferation
# Description: as §2, §1, §3
# CNCM I-2546 = experiment: as above; details: concentration inducing at least 50% inhibition of maximal proliferation
# Description: as §2, §1, §3
# CNCM I-2544 = experiment: as above; details: concentration inducing at least 50% inhibition of maximal proliferation
# Description: as §2, §1, §3
substance,measurement,setting,value
IFN-α,cluster's characteristics D28137 bst-2,[1]; Cluster 1,˜u
same,cluster's characteristics D49824 hla-b null allele,[1]; Cluster 1,˜u
same,"cluster's characteristics HG658 major histocompatibility complex, class 1 c",[1]; Cluster 1,˜u
same,"cluster's characteristics HG2917 major histocompatibility complex, class i, e",[1]; Cluster 1,˜u
same,cluster's characteristics J00105 beta-2 microglobulin gene,[1]; Cluster 1,˜u
same,cluster's characteristics J04164 interferon-inducible protein 27-sep,[1]; Cluster 1,˜u
same,cluster's characteristics M13755 interferon-induced 17-kda/15-kda protein,[1]; Cluster 1,˜u
same,"cluster's characteristics M19650 2′,3′-cyclic nucleotide 3prime-phosphodiesterase",[1]; Cluster 1,˜u
same,cluster's characteristics M94880 mhc class i (hla-a*8001),[1]; Cluster 1,˜u
same,"cluster's characteristics U22970 16-jun gene, interferon-inducible peptide (6-16)",[1]; Cluster 1,˜u
same,cluster's characteristics U50648 interferon-inducible rna-dependent protein kinase (pkr),[1]; Cluster 1,˜u
same,cluster's characteristics U51127 interferon regulatory factor 5,[1]; Cluster 1,˜u
same,cluster's characteristics X02874 2-5A synthetase (1.6 kb),[1]; Cluster 1,˜u
same,cluster's characteristics X07730 prostate specific antigen,[1]; Cluster 1,˜u
same,cluster's characteristics X57351 1-8d gene from interferon-inducible gene family,[1]; Cluster 1,˜u
same,cluster's characteristics X57522 ring4 cdna,[1]; Cluster 1,˜u
same,cluster's characteristics X67325 p27,[1]; Cluster 1,˜u
same,cluster's characteristics X96401 rox protein,[1]; Cluster 1,˜u
same,cluster's characteristics Z56281 interferon regulatory factor 3,[1]; Cluster 1,˜u
same,cluster's characteristics M98343 amplaxin (ems1),[1]; Cluster2,uu
same,cluster's characteristics J03909 gamma-interferon-inducible protein (ip-30),[1]; Cluster3,u˜
same,cluster's characteristics M92642 alpha-1 type xvi collagen (col16a1),[1]; Cluster3,u˜
same,cluster's characteristics U41515 dss1,[1]; Cluster3,u˜
same,cluster's characteristics L40387 thyroid receptor interactor (trip14),[1]; Cluster4,du
same,cluster's characteristics M97935 transcription factor isgf-3,[1]; Cluster4,du
same,cluster's characteristics U01824 glutamate/aspartate transporter,[1]; Cluster4,du
same,cluster's characteristics U53830 interferon regulatory factor 7a,[1]; Cluster4,du
same,cluster's characteristics U72882 interferon-induced leucine zipper protein (ifp35),[1]; Cluster4,du
same,cluster's characteristics J00212 leukocyte interferon (ifn-alpha),[1]; Cluster 5,d˜
same,cluster's characteristics K01900 lymphocyte interferon alpha type 201,[1]; Cluster 5,d˜
same,cluster's characteristics L42243 ifnar2 gene (interferon receptor),[1]; Cluster 5,d˜
same,cluster's characteristics M79462 pml-1,[1]; Cluster 5,d˜
same,cluster's characteristics U52513 rig-g,[1]; Cluster 5,d˜
same,cluster's characteristics X90846 mixed lineage kinase 2,[1]; Cluster 5,d˜
same,cluster's characteristics M30818 interferon-induced cellular resistance mediator protein,[1]; Cluster 6,˜d
same,cluster's characteristics X15949 interferon regulatory factor-2 (irf-2),[1]; Cluster 6,˜d
same,cluster's characteristics D21235 hhr23a protein,[1]; Table 3 Cluster 1,˜u
same,cluster's characteristics D28137 bst-2,[1]; Table 3 Cluster 1,˜u
same,cluster's characteristics D32050 alanyl-trna synthetase,[1]; Table 3 Cluster 1,˜u
same,cluster's characteristics D50914 EST,[1]; Table 3 Cluster 1,˜u
same,cluster's characteristics HG1612 macmarcks,[1]; Table 3 Cluster 1,˜u
same,cluster's characteristics K03515 neuroleukin,[1]; Table 3 Cluster 1,˜u
same,cluster's characteristics L13210 mac-2 binding protein,[1]; Table 3 Cluster 1,˜u
same,cluster's characteristics L37043 casein kinase i epsilon,[1]; Table 3 Cluster 1,˜u
same,cluster's characteristics M31013 nonmuscle myosin heavy chain (nmhc),[1]; Table 3 Cluster 1,˜u
same,cluster's characteristics M34338 spermidine synthase,[1]; Table 3 Cluster 1,˜u
same,cluster's characteristics S81914 iex-1 = radiation-inducible immediate-early gene,[1]; Table 3 Cluster 1,˜u
same,cluster's characteristics U09579 melanoma differentiation associated (mda-6),[1]; Table 3 Cluster 1,˜u
same,cluster's characteristics U18009 chromosome 17q21 clone lf113,[1]; Table 3 Cluster 1,˜u
same,cluster's characteristics U18018 ela enhancer binding protein (ela-f),[1]; Table 3 Cluster 1,˜u
same,cluster's characteristics U47025 fetal brain glycogen phosphorylase b,[1]; Table 3 Cluster 1,˜u
same,cluster's characteristics U50327 protein kinase c substrate 80k-h gene (prkcsh),[1]; Table 3 Cluster 1,˜u
same,cluster's characteristics U61263 acetolactate synthase homolog,[1]; Table 3 Cluster 1,˜u
same,cluster's characteristics U65579 mitochondrial nadh dehydrogenase-ubiquinone,[1]; Table 3 Cluster 1,˜u
same,cluster's characteristics U65932 extracellular matrix protein 1 (ecm1),[1]; Table 3 Cluster 1,˜u
same,cluster's characteristics U69126 fuse binding protein 2 (fbp2),[1]; Table 3 Cluster 1,˜u
same,cluster's characteristics U72206 guanine nucleotide regulatory factor (lfp40),[1]; Table 3 Cluster 1,˜u
same,cluster's characteristics U91316 acyl-coa thioester hydrolase,[1]; Table 3 Cluster 1,˜u
same,cluster's characteristics X04412 plasma gelsolin,[1]; Table 3 Cluster 1,˜u
same,cluster's characteristics X76538 mpv17,[1]; Table 3 Cluster 1,˜u
same,cluster's characteristics X95325 dna binding protein a variant,[1]; Table 3 Cluster 1,˜u
same,cluster's characteristics Y00264 amyloid a4 precursor,[1]; Table 3 Cluster 1,˜u
same,cluster's characteristics Z26491 gene catechol o-methyltransferase,[1]; Table 3 Cluster 1,˜u
same,"cluster's characteristics D78132 rheb gene, ras-related gtp binding protein gene",[1]; Table 3 Cluster 2,uu
same,cluster's characteristics J04182 lysosomal membrane glycoprotein-1 (lamp1),[1]; Table 3 Cluster 2,uu
same,cluster's characteristics J04444 cytochrome c-1 gene,[1]; Table 3 Cluster 2,uu
same,cluster's characteristics L07633 interferon-gamma,[1]; Table 3 Cluster 2,uu
same,"cluster's characteristics L35249 vacuolar h + -atpase mr 56,000 subunit (ho57)",[1]; Table 3 Cluster 2,uu
same,cluster's characteristics M60784 ul snrnp-specific protein,[1]; Table 3 Cluster 2,uu
same,cluster's characteristics M65028 heterogeneous nuclear ribonucleoprotein a/b,[1]; Table 3 Cluster 2,uu
same,cluster's characteristics U70063 human acid ceramidase,[1]; Table 3 Cluster 2,uu
same,cluster's characteristics U78525 human eukaryotic translation initiation factor (eif3),[1]; Table 3 Cluster 2,uu
same,"cluster's characteristics X70848 protein phosphatase 1, catalytic subunit",[1]; Table 3 Cluster 2,uu
same,cluster's characteristics Z47055 farnesyl pyrophosphate synthetase like,[1]; Table 3 Cluster 2,uu
same,proliferation inhibition (IC50),CNCM I-2548,10 U/ml
same,proliferation inhibition (IC50),CNCM I-2547,10 U/ml
same,proliferation inhibition (IC50),CNCM I-2546,100 U/ml
same,proliferation inhibition (IC50),CNCM I-2544,100 U/ml
